Laboratory results published in patent US20050171005A1, “Methods and compositions for modulating beta-catenin phosphorylation” (priority 2002, published 2005).

Key:
β-catenin [1] = assay type: cell-based, human; conditions: 293 cells
Protocol: (§1) 293T cells were transiently transfected using the calcium phosphate procedure. The following expression vectors were used: Myc- or Flag-tagged β-catenin (0.5 μg) (a human β-catenin clone obtained from R. Grosschedl), Flag- or Myc-tagged axin (2 μg) (mouse cDNA provided by F. Costantini), HA-GSK3β or Flag-GSK3β (3.5 μg) (a rabbit clone obtained from J R Woodgett) [Woodgett, J. R. (1990) EMBO J 9: 2431-2438]. β-catenin mutants include DP, (S33, S37, T40, S45, S47 substituted to alanine) single point mutants (S29F, S33Y, S37A, T41A, S45F) and 45PKA (T41S, T42R, A43R). Additional vectors: Flag-WD, a dominant negative β-TrCP fragment (ΔF-box) [Yaron, A. et al. (1998) Nature 396: 590-594]; Flag-Dvl-1 (a mouse cDNA clone obtained from S-I Yanagawa) [Lee, J. S. et al. (1999) J Biol Chem 274: 21464-21470]; WT and dominant negative Xenopus CKIε (XCKIε-D128N) (provided by T. Shcwarz-Romond) [McKay, R. M. et al. (2001) Dev Biol 235: 378-387]. 24-48 hr after transfection, cells were harvested and processed for the various experiments. MG-132 (Sigma) was used at 20 μM for 5 hr; LiCl (40 mM) was added for 6 hr, and CKI-7 (100 μM) for 16 hr prior to harvesting. β-catenin, axin or GSK-30 in cell lysates were detected using anti-Myc (Ab-1, Oncogenes Research Products, 2 μg/ml), anti-Flag (M2, Sigma, 1 μg/ml) and anti-HA (12CA5 ascites fluid; 1:5000) antibodies, respectively. GFP expression was monitored with anti-GFP antibody (JL-8, Clontech, 1 μg/ml). In some experiments (FIG. 4) GSK-3β was detected using anti-GSK-3β monoclonal antibodies (clone 7, Transduction Laboratories, 0.1 μg/ml). Endogenous and exogenous β-catenin (FIGS. 5d and 6a) were detected with anti-β-catenin antibodies (clone 14, Transduction Laboratories) (0.25 μg/ml).
Western blot and mass spectrometry (MS). Three different commercial anti-β-catenin phospho-peptide antibodies were used: i) Anti-phospho-Thr41/Ser 45 (Cell Signaling Technology), a polyclonal antibody specific for both pT41 and pS45 (otp41,45). ii) Anti-phospho-Ser33/37/Thr41 (Cell Signaling Technology), a polyclonal antibody recognizing pS33 (αp33). These two polyclonal antibodies were used at a 1:1000 dilution, according to the manufacturer's instructions. iii) anti-phospho-Ser 33/37 (BC-22, Sigma), a monoclonal antibody specific for pS37 (used as ascites fluid at a 1:3000 dilution; αp37). Antibody specificities were determined by phosphopeptide inhibition studies. D^32S(PO4)GIHSGATTTAPS^45 abolished the αp33, but not the αp37 signal; D^32SGIHS(PO4)GATTTAPS^45 blocked the αp37 but not the αp33 signal. […] Proteins for MS analysis were immunopurified by M2 Flag-affinity beads (Sigma), separated by SDS-PAGE, Coomassie stained and the β-catenin bands were in-gel digested with endoproteinase Asp-N. The resulting peptides were desalted on small columns, eluted with 20% MeOH, 5% HCOOH, and analyzed by nanoelectrospray mass spectrometry [Yaron et al. (1998) id ibid.], using a quadrupole time-of-flight mass spectrometer (PE-Sciex, Canada).
GSK-3β is traditionally known to target the phosphorylation of +4P-primed substrates [Frame, S. et al. (2001) Mol Cell 7: 1321-1327], a specificity supported by recent structural studies of the enzyme [Dajani, R. et al (2001) Cell 105: 721-732]. The fact that the S45 phosphorylation site is not preceded by a +4P priming site led to the proposition that the molecular complex of axin and GSK-3β is capable of bypassing the priming requirement of the uncomplexed enzyme [Cohen and Frame (2001) id ibid.]. To assess the contribution of GSK-30 in axin-mediated S45 phosphorylation, two types of experiments were carried out. In the first set, 293 cells were incubated prior to harvesting with LiCl, a GSK-3β inhibitor capable of mimicking a Wnt effect [Klein, P. S. and D. A. Melton (1996) Proc Natl Acad Sci USA 93: 8455-8459; Stambolic, V. et al. (1996) Curr Biol 6: 1664-1668].

endogenous β-catenin = experiment: Phosphorylation of endogenous β-catenin in proteasome-inhibited HeLa cells with kinase inhibitors; assay type: cell-based; conditions: CKI-7 100 μM; for S33 phosphorylation of endogenous β-catenin: LiCl 40 mM
Protocol: FIG. 5d: Effects of specific kinase inhibitors on the phosphorylation of endogenous β-catenin at S41,45 and S33 in HeLa cells. CKI-7 was used at 100 μM, H89 at 5 μM and LiCl at 40 mM. β-catenin was detected with anti-β-catenin antibody, or anti-phospho-p-catenin antibodies.
as §1
Western blot and mass spectrometry (MS). Three different commercial anti-β-catenin phospho-peptide antibodies were used: i) Anti-phospho-Thr41/Ser 45 (Cell Signaling Technology), a polyclonal antibody specific for both pT41 and pS45 (otp41,45). ii) Anti-phospho-Ser33/37/Thr41 (Cell Signaling Technology), a polyclonal antibody recognizing pS33 (αp33). […] Antibody specificities were determined by phosphopeptide inhibition studies. […]
In another set of experiments the in vivo role of CKI in S45 phosphorylation was analyzed, using two dominant negative CKIε constructs (dnXCKIε K85R and D128N) [McKay et al. (2001) id ibid.] and a specific CKI inhibitor (CKI-7) [Chijiwa, T. et al. (1989) J Biol Chem 264: 4924-4927]. […]

LB33B1 cells = experiment: LB33B1 melanoma cell growth, live cell count 24 hours post treatment; assay type: cell-based; conditions: increasing concentrations of CKI7, live cells counted 24 hours post treatment
Protocol: FIG. 10d: Blocking β-catenin phosphorylation in a melanoma cell line affects cell growth. LB33B1 cells were treated with increasing concentrations of the S45 phosphorylation inhibitor CKI7 and live cells were counted 24 hours post treatment. • Abbreviations: U.T., untreated or untransfected; Rel. ce. numb. 24 hrs. po. treat., relative cell numbers 24 hours post-treatment.
(§2) The highly metastatic melanoma cell line LB33B1 (B1) is a derivative of the low grade malignant LB33A1 (A1) cells [Ikeda H. et al., (1997) Immunity 6(2): 199-208]. Both cell lines harbor a similar high content of β-catenin, irrespective of proteasome inhibition, yet the B1 β-catenin is phosphorylated (FIG. 10b). […] To assess the contribution of phosphorylated versus non-phosphorylated β-catenin to the MITF-transcriptional activity, reporter-transfected B1 cells were treated with LiCl, which suppresses GSK3 phosphorylation, or cotrasfected with Dvl-ΔPDZ, which cannot cooperate with Frat1, yet suppresses S45 phosphorylation. […] Abrogating β-catenin phosphorylation in melanoma cells may compromise their growth and indeed, treatment of B1 melanoma cells with CKI7, a small-molecule specific CKI inhibitor, slowed their proliferation (FIG. 10d) along with suppressing the phosphorylation of β-catenin (data not shown).

β-catenin [2] = experiment: β-catenin phosphorylation in B1 melanoma cells; assay type: cell-based; conditions: data not shown
Protocol: as §2

MITF-M promoter = experiment: pGL3-MITF/M luciferase reporter assay in LB33B1 melanoma cells; assay type: cell-based; conditions: reporter-transfected B1 (LB33B1) cells; 20 mM LiCl for 24 hours
Protocol: FIG. 10c: MITF transcriptional activity requires β-catenin phosphorylation. The two related melanoma cell lines LB33A1 and LB33B1 were transfected with the pGL3-MITF/M luciferase reporter plasmid [Takeda et al. (2000) J Biol Chem 275: 14013-6] alone or together with DvlΔPDZ expression plasmid. 24 hours after transfection, one sample of cells was treated with 20 mM LiCl for 24 hours, as indicated. Cells were harvested and their lysate luciferase activity was determined using Promega's Luciferase Assay System. MITF-M transcriptional activity is expressed in Relative Luciferase Units (RLU). A TCF mutant-site reporter (pGL3-MITF/M195.3) was used to control TCF-independent transcription.
Cells were transfected with the TOPFLASH or pGL3-MITF/M luciferase reporter plasmids [Korinek et al., (1997) Science, 275: 1752-3; Takeda et al. (2000) J. Biol. Chem. 275: 14013-6] and the relevant expression plasmid combinations. 24 hours after transfection the cells were harvested. Luciferase activity was determined in the cells' lysate using Promega's Luciferase Assay System. The transcription activity is expressed in Relative Luciferase Units (RLU). TCF mutant-site reporters (FOPFLASH and pGL3-MITF/M195.3) were used to control TCF-independent transcriptional transactivation. […]

[3] = MG-132 treated, LiCl 40 mM for 6 hr

SMILES | axin-induced p45 signal of wt β-catenin (β-catenin [1]; CKI-7 100 μM for 16 hr) | constitutive S45 phosphorylation of 45PKA β-catenin (β-catenin [1]; CKI-7 100 μM for 16 hr, H89 data not shown) | S45/T41 phosphorylation of endogenous β-catenin (endogenous β-catenin) | S33 phosphorylation of endogenous β-catenin (endogenous β-catenin) | proliferation of B1 melanoma cells (LB33B1 cells) | phosphorylation of β-catenin (β-catenin [2]) | S45 phosphorylation of T41A mutated β-catenin (β-catenin [1]; MG-132 treated, LiCl 40 mM) | axin-induced S33/37 phosphorylation of wt β-catenin (β-catenin [1]; [3]) | axin-induced T41/S45 phosphorylation signal of wt β-catenin (β-catenin [1]; [3]) | MS analysis of S45 peptides, treated versus non-treated cells (β-catenin [1]; data not shown) | MITF promoter activity (MITF-M promoter)
NCCNS(=O)(=O)c1ccc(Cl)c2ccncc12 [CKI-7] | diminished | did not affect | suppressed | suppressed | slowed | suppressing | – | – | – | – | –
[Cl-].[Li+] [LiCl] | – | – | – | exclusively blocked | – | – | no effect | abolished | minimally affected | no difference | inhibition
